Experimental data published in article PMC10943827, “Engineering Saccharomyces cerevisiae for targeted hydrolysis and fermentation of glucuronoxylan through CRISPR/Cas9 genome editing” (Microbial Cell Factories, 2024).

Target: T1, XylA (Aspergillus oryzae, UniProt Q2UR38)
T1 construct: gene xlnD; codon-optimized gene, N-terminal S. cerevisiae SED1 secretory signal peptide, expressed from X2 locus of S. cerevisiae CEN.PK XXX; secretome, intact cells and lysate assayed
T1 sequence (Q2UR38 21-798): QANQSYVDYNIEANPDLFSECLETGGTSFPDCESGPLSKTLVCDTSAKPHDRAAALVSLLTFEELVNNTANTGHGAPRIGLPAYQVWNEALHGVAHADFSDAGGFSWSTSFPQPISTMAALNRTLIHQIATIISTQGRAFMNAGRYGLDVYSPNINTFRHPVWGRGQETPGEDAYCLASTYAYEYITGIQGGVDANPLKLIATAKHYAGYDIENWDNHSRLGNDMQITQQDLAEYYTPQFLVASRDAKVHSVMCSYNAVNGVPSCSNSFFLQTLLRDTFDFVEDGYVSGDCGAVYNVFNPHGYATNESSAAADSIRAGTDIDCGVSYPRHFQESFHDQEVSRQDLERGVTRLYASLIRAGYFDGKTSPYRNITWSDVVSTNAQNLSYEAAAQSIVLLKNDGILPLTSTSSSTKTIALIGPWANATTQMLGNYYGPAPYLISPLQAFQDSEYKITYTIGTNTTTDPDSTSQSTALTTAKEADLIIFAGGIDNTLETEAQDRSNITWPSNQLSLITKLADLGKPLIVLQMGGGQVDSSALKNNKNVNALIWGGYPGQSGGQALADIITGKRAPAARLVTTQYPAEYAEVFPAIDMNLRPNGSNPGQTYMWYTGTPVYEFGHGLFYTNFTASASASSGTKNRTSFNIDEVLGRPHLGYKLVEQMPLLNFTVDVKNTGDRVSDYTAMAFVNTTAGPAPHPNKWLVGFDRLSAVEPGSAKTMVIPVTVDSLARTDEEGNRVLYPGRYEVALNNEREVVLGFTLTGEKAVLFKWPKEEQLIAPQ
Experiment: p-nitrophenol release at […] nm, secretome / cell / intracellular fractions of XylA strain versus parent XXX strain
Assay type: cell-based
Conditions: 5 mM substrate, 20 mM sodium phosphate pH 7, 30 °C, 30 min

## O=[N+]([O-])c1ccc(O[C@@H]2OC[C@@H](O)[C@H](O)[C@H]2O)cc1 [p-nitrophenyl-β-D-xylopyranoside]
  p-nitrophenol release at 405 nm, secretome / cell / intracellular fractions of X: subcellular β-xylosidase activity quantified using p-nitrophenyl-β-D-xylopyranoside
